In patent US10398689B2, “Benzopiperidine derivative, preparation method thereof and medical use thereof” (Jiangsu Hengrui Medicine Co., Ltd., priority 2015, dated 2019):

Experiments:
[1] = target: T1, ER (estrogen receptor) (Homo sapiens, UniProt P03372); experiment: Inhibition of the binding of estrogen (E) to estrogen receptor (ER), MCF-7/ERE-luciferase reporter cells; type: cell-based; conditions: MCF-7/ERE-luciferase cells, 0.1 nM estradiol, 24 hours, chemiluminescence; read-out: IC50 value of inhibition effect on the binding of E to ER
T1 construct: MCF-7/ERE-luciferase monoclonal cells were selected by transfection of MCF-7; host or cells: MCF-7/ERE-luciferase (only the ERE-luciferase reporter was transfected)
T1 sequence (P03372 1-595): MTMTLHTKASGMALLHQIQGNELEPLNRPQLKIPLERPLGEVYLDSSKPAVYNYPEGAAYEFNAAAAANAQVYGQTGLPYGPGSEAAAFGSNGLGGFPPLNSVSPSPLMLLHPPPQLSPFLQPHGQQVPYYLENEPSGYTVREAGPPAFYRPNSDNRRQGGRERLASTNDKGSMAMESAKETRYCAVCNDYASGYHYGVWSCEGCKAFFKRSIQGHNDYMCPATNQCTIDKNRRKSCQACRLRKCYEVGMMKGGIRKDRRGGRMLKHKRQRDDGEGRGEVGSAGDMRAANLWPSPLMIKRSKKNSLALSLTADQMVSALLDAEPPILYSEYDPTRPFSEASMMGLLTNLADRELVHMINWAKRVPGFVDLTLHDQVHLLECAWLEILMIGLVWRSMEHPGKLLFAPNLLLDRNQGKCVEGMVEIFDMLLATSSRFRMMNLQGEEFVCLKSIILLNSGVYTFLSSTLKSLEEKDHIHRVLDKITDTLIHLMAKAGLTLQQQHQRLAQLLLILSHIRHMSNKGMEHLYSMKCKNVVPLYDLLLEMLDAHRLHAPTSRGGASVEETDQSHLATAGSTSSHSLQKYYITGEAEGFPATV
Description: The compounds of the present invention have an inhibition effect on the binding of E (estrogen) to ER (estrogen receptor), thereby blocking the binding of a complex of E and ER complex to ERE (estrogen responsive element), and subsequently blocking the expression of downstream luciferase protein.
The inhibition effect of the compounds on the binding of E to ER in vitro was tested by the following method.
The object of this experiment was to determine the inhibition effect of the compounds on the binding of E to ER, and the in vitro activity of the compounds was evaluated according to the IC50 values.
ERE was cloned into the upstream of the luciferase gene, and MCF-7/ERE-luciferase monoclonal cells were selected by transfection of MCF-7 (Cell Bank of Chinese Academy of Sciences typical culture preservation Committee, TCHu74). MCF-7/ERE-luciferase cells were inoculated into the MEM medium (hyclone, SH30024.01B) containing 10% charcoal stripped FBS (Moregate, FBSF), 1% sodium pyruvate (Sigma, S8636), 1% nonessential amino acids (Sigma, M7145) and 500 μg/ml G418 in a 96-well plates with a density of 30,000 cells/well, and the cells were incubated under the conditions of 37° C., and 5% CO2. The drug was prepared as a 20 mM stock solution that was later diluted with 100% DMSO in 10 fold concentration gradient, and then diluted 20-fold with the medium DMEM. After incubation for 24 hours, the medium was removed, then 0.1 nM estradiol (Sigma, E2758) and 10 μl of the drug diluted with the medium were added to each well, and the control group was added with DMSO. The plate was gently shaken and incubated in a incubator at 37° C., 5% CO2. After 24 hours, the cell culture medium was discarded, Then, 50 μl of the prepared luciferase substrate (Promega, E6110) was added to each well, and the plate was placed in the dark at room temperature for 10-15 minutes, then the chemiluminescence signal value was determined.
The inhibition effect of the compounds of the present invention on the binding of E to ER was tested by the experiment described above. The values of the chemiluminescence signal vs the logarithmic concentrations of the compounds were plotted using Graphpad Prism, and the measured IC50 values are shown in Table 1.

[2] = test system: MCF7 cells; experiment: Inhibition of the proliferation of MCF7 cells (Cell Titer-Glo); type: cell-based; conditions: Homo sapiens, MCF-7 cells, 72 hours, read-out: IC50 value of inhibition effect on the proliferation of MCF7 cells
Description: The object of this experiment was to determine the inhibition effect of the compounds on the proliferation activity of MCF7 cells, and the in vitro activity of the compounds was evaluated according to the IC50 values.
MCF-7 cells (Cell Bank of Chinese Academy of Sciences typical culture preservation Committee, TChu 74) were inoculated into the MEM medium (Hyclone, SH30024.01B) containing 10% FBS (Gibco, 10099-141), 1% sodium pyruvate (Sigma, S8636), and 1% nonessential amino acids (Sigma, M7145) in a 96-well plate with a density of 40,000 cells/well, and the cells were incubated under the conditions of 37° C., and 5% CO2. The compound was prepared as a 20 mM stock solution that was later diluted to 1000× final concentration with 100% DMSO, and then diluted with 20-fold medium containing 2% FBS. After incubation for 24 hours, the medium was removed and 90 μl of the medium containing 2% FBS and 10 μl of the drug were added to each well, 10 […] of DMSO was added to the control group, and the blank group contained only 100 μl medium containing 2% FBS. The plate was gently shaken and incubated in a incubator at 37° C., 5% CO2. After 72 hours later, 50 μl of mixed Cell Titer-Glo (Promega, G7571) was added to each well. The plate was shaken until the ingredients were mixed uniformly, and placed at room temperature for 10 minutes, then the chemiluminescence signal value was determined. The inhibition effect of the compound AZD9496 at 100 nM on the proliferation of MCF-7 cells was set to 100%, the maximum inhibition rate of other compounds=(chemiluminescence signal valuenegative control−chemiluminescence signal valuecompound 100 nm)/(chemiluminescence signal valuenegative control−chemiluminescence signal valueAZD9496 100 nm)×100%, and the negative control was a well with 0.5% DMSO.
The values of the chemiluminescence signals vs the logarithmic concentrations of the compounds were plotted using Graghpad Prism to obtain the IC50 values.

Row | IC50 [1] | IC50 [2] | SMILES
1 | 0.42 nM | 0.31 nM | CCn1cc(-c2ccc3c(c2)C[C@@H](C)N(c2ccc(C4CC4)cc2C)[C@@H]3c2ccc(/C=C/C(=O)O)cc2)cn1 [Example 28, (E)-3-(4-((1R,3R)-2-(4-Cyclopropyl-2-methylphenyl)-6-(1-ethyl-1H-pyrazol-4-yl)-3-methyl-1,2,3,4-tetrahydroisoquinolin-1-yl)phenyl)acrylic acid]
2 | 1.26 nM | 2.36 nM | CC1Cc2cc(-c3cnn(C(F)F)c3)ccc2C(c2ccc(/C=C/C(=O)O)cc2)N1c1ccc(C2CC2)cc1 (centres unmarked) [Example 29]
3 | 0.34 nM | 2.7 nM | CCn1cc(-c2ccc3c(c2)CC(C)N(c2ccc(C4CC4)cc2)C3c2c(F)cc(/C=C/C(=O)O)cc2F)cn1 [Example 30, (E)-3-(4-((1S,3R/1R,3S)-2-(4-Cyclopropylphenyl)-6-(1-ethyl-1H-pyrazol-4-yl)-3-methyl-1,2,3,4-tetrahydroisoquinolin-1-yl)-3,5-difluorophenyl)acrylic acid]
4 | 0.74 nM | 0.42 nM | CCn1cc(-c2ccc3c(c2)C[C@@H](C)N(c2ccc(C4CC4)cc2)[C@@H]3c2c(F)cc(/C=C/C(=O)O)cc2F)cn1 [Example 32]
5 | 5.42 nM | – | Cc1ccc(N2[C@H](c3ccc(/C=C/C(=O)O)cc3)c3ccc(-c4cnn(C)c4)cc3C[C@H]2C)cc1 [Example 34]
6 | 1 nM | 1.03 nM | Cc1ncc(-c2ccc3c(c2)CC(C)N(c2ccc(C4CC4)cc2)C3c2ccc(/C=C/C(=O)O)cc2)s1 [Example 35, (E)-3-(4-((1R,3R/1S,3S)-2-(4-Cyclopropylphenyl)-3-methyl-6-(2-methylthiazol-5-yl)-1,2,3,4-tetrahydroisoquinolin-1-yl)phenyl)acrylic acid]
7 | 8.08 nM | – | CC1Cc2cc(-c3cnn(C)c3)ccc2C(c2ccc(/C=C/C(=O)O)cc2)N1c1ccc(C(C)(C)C)cc1 [Example 41, (E)-3-(4-((1R,3R/1S,3S)-2-(4-(tert-Butyl)phenyl)-3-methyl-6-(1-methyl-1H-pyrazol-4-yl)-1,2,3,4-tetrahydroisoquinolin-1-yl)phenyl)acrylic acid]
8 | 31.7 nM | – | CC1Cc2cc(-c3cnn(C)c3)ccc2C(c2ccc(/C=C/C(=O)O)cc2)N1c1ccc(CC(F)(F)F)cc1 [Example 43, (E)-3-(4-((1R,3R/1S,3S)-3-Methyl-6-(1-methyl-1H-pyrazol-4-yl)-2-(4-(2,2,2-trifluoroethyl)phenyl)-1,2,3,4-tetrahydroisoquinolin-1-yl)phenyl)acrylic acid]
9 | 7.57 nM | – | CCOc1ccc(N2C(C)Cc3cc(-c4cnn(C)c4)ccc3C2c2ccc(/C=C/C(=O)O)cc2)cc1 [Example 44, (E)-3-(4-((1R,3R/1S,3S)-2-(4-Ethoxyphenyl)-3-methyl-6-(1-methyl-1H-pyrazol-4-yl)-1,2,3,4-tetrahydroisoquinolin-1-yl)phenyl)acrylic acid]
10 | 4.06 nM | – | CCc1ccc(N2C(C)Cc3cc(-c4cnn(C)c4)ccc3C2c2ccc(/C=C/C(=O)O)cc2)c(CC)c1 [Example 45, (E)-3-(4-((1R,3R/1S,3S)-2-(2,4-Diethylphenyl)-3-methyl-6-(1-methyl-1H-pyrazol-4-yl)-1,2,3,4-tetrahydroisoquinolin-1-yl)phenyl)acrylic acid]

The next lines start with the compound.

Row | SMILES | IC50 [1] | IC50 [2]
11 | CCn1cc(-c2ccc3c(c2)CC(C)N(c2ccc(C4CC4)cc2)C3c2ccc(/C=C/C(=O)O)cc2)cn1 [Example 13, (E)-3-(4-((1R,3R/1S,3S)-2-(4-Cyclopropylphenyl)-6-(1-ethyl-1H-pyrazol-4-yl)-3-methyl-1,2,3,4-tetrahydroisoquinolin-1-yl)phenyl)acrylic acid] | 0.27 nM | 1.12 nM
12 | CCc1ccc(N2C(C)Cc3cc(-c4cnn(CC)c4)ccc3C2c2ccc(/C=C/C(=O)O)cc2)cc1 [Example 17, (E)-3-(4-((1R,3R/1S,3S)-6-(1-Ethyl-1H-pyrazol-4-yl)-2-(4-ethylphenyl)-3-methyl-1,2,3,4-tetrahydroisoquinolin-1-yl)phenyl)acrylic acid] | 3.32 nM | 0.65 nM
13 | CCCc1ccc(N2C(C)Cc3cc(-c4cnn(C)c4)ccc3C2c2ccc(/C=C/C(=O)O)cc2)cc1 [Example 20, (E)-3-(4-((1R,3R/1S,3S)-3-Methyl-6-(1-methyl-1H-pyrazol-4-yl)-2-(4-propylphenyl)-1,2,3,4-tetrahydroisoquinolin-1-yl)phenyl)acrylic acid] | – | 4.53 nM
14 | CCn1cc(-c2ccc3c(c2)CC(C)N(c2ccc(C4CC4)cc2F)C3c2ccc(/C=C/C(=O)O)cc2)cn1 [Example 22, (E)-3-(4-((1R,3R/1S,3S)-2-(4-Cyclopropyl-2-fluorophenyl)-6-(1-ethyl-1H-pyrazol-4-yl)-3-methyl-1,2,3,4-tetrahydroisoquinolin-1-yl)phenyl)acrylic acid] | 1 nM | 0.57 nM
15 | CCc1ccc(N2C(C)Cc3cc(-c4cnn(CC)c4)ccc3C2c2ccc(/C=C/C(=O)O)cc2)c(Cl)c1 [Example 23, (E)-3-(4-((1R,3R/1S,3S)-2-(2-Chloro-4-ethylphenyl)-6-(1-ethyl-1H-pyrazol-4-yl)-3-methyl-1,2,3,4-tetrahydroisoquinolin-1-yl)phenyl)acrylic acid] | 0.85 nM | 0.81 nM
16 | CCn1cc(-c2ccc3c(c2)CC(C)N(c2ccc(C4CC4)cc2Cl)C3c2ccc(/C=C/C(=O)O)cc2)cn1 [Example 24, (E)-3-(4-((1R,3R/1S,3S)-2-(2-Chloro-4-cyclopropylphenyl)-6-(1-ethyl-1H-pyrazol-4-yl)-3-methyl-1,2,3,4-tetrahydroisoquinolin-1-yl)phenyl)acrylic acid] | 1.81 nM | 0.9 nM
17 | CCn1cc(-c2ccc3c(c2)CC(C)N(c2ccc(C4CC4)cc2)C3c2ccc(/C=C/C(=O)O)cc2F)cn1 [Example 25, (E)-3-(4-((1S,3R/1R,3S)-2-(4-Cyclopropylphenyl)-6-(1-ethyl-1H-pyrazol-4-yl)-3-methyl-1,2,3,4-tetrahydroisoquinolin-1-yl)-3-fluorophenyl)acrylic acid] | 1.62 nM | 0.89 nM
18 | CCn1cc(-c2ccc3c(c2)CC(C)N(c2ccc(C4CC4)c(F)c2)C3c2ccc(/C=C/C(=O)O)cc2)cn1 [Example 26, (E)-3-(4-((1R,3R/1S,3S)-2-(4-Cyclopropyl-3-fluorophenyl)-6-(1-ethyl-1H-pyrazol-4-yl)-3-methyl-1,2,3,4-tetrahydroisoquinolin-1-yl)phenyl)acrylic acid] | 6.76 nM | –
